Laboratory results reported in US20210045385A1, “PYRIDAZINONE-SUBSTITUTED KETOXIMES AS HERBICIDES” (FMC Corporation, priority 2018, published 2021).

Key:
Format in all cases: in vivo
[1] = tested on: barnyardgrass (Echinochloa crus-galli); assay: Test B flooded paddy test, visual plant response rating; conditions: 250 g ai/ha, Flood, applied to paddy water, 2-leaf stage, evaluated after 13 to 15 days
In short: (§1)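 At the two-leaf stage, seedlings received compound applied to paddy water flooded 3 cm above soil, a level sustained until assessment. Greenhouse incubation lasted 13 to 15 days before visual comparison with control plants.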

[2] = tested on: ducksalad (Heteranhera limosa); assay: as above; conditions: 250 g ai/ha, Flood, applied to paddy water, 2-leaf stage, evaluated after 13 to 15 days
In short: as §1

rice (Oryza sativa) = assay: as above; conditions: 250 g ai/ha, Flood, applied to paddy water, 2-leaf stage, evaluated after 13 to 15 days
In short: as §1

[3] = tested on: sedge, umbrella (small-flower umbrella sedge, Cyperus difformis); assay: as above; conditions: 250 g ai/ha, Flood, applied to paddy water, 2-leaf stage, evaluated after 13 to 15 days
In short: as §1

[4] = tested on: pigweed (Amaranthus retroflexus); assay: Test A preemergence, visual plant response rating; conditions: for Pigweed plant response rating: 125 g ai/ha, preemergence, 0 to 100 scale, 0 no effect, 100 complete control; for Pigweed plant response rating (0 to 100 scale): 500 g ai/ha Preemergence, approx. 10 days
In short: (§2)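 Compared with untreated controls, treated plants received a visual injury score on a 0–100 scale around 10 days after application. The compound, in a non-phytotoxic solvent with surfactant, was given as a preemergence soil spray or postemergence at the one- to two-leaf stage.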

[5] = tested on: barnyardgrass (Echinochloa crus-galli); assay: Test A preemergence, visual plant response rating; conditions: for Barnyardgrass plant response rating: 125 g ai/ha, preemergence, 0 to 100 scale, 0 no effect, 100 complete control; for Barnyardgrass plant response rating (0 to 100 scale): 500 g ai/ha Preemergence, approx. 10 days
In short: as §2

kochia (Kochia scoparia) [6] = assay: Test A preemergence, visual plant response rating; conditions: for Kochia plant response rating: 125 g ai/ha, preemergence, 0 to 100 scale, 0 no effect, 100 complete control; for Kochia plant response rating (0 to 100 scale): 500 g ai/ha Preemergence, approx. 10 days
In short: as §2

[7] = tested on: Italian ryegrass (Lolium multiflorum); assay: Test A preemergence, visual plant response rating; conditions: for Ryegrass, Italian plant response rating: 125 g ai/ha, preemergence, 0 to 100 scale, 0 no effect, 100 complete control; for Ryegrass, Italian plant response rating (0 to 100 scale): 500 g ai/ha Preemergence, approx. 10 days
In short: as §2

[8] = tested on: ragweed (common ragweed, Ambrosia elatior); assay: Test A preemergence, visual plant response rating; conditions: for Ragweed plant response rating: 125 g ai/ha, preemergence, 0 to 100 scale, 0 no effect, 100 complete control; for Ragweed plant response rating (0 to 100 scale): 500 g ai/ha Preemergence, approx. 10 days
In short: as §2

[9] = tested on: foxtail, giant (giant foxtail, Setaria faberii); assay: Test A preemergence, visual plant response rating; conditions: for Foxtail, Giant plant response rating: 125 g ai/ha, preemergence, 0 to 100 scale, 0 no effect, 100 complete control; for Foxtail, Giant plant response rating (0 to 100 scale): 500 g ai/ha Preemergence, approx. 10 days
In short: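 Ratings use a 0–100 visual scale (100 = complete control) against untreated controls, scored about 10 days after greenhouse treatment. Test chemicals were formulated in surfactant-containing non-phytotoxic solvent and applied either as soil spray after planting (preemergence) or onto one- to two-leaf, 2–10 cm plants (postemergence).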

corn (Zea mays) = assay: Test A postemergence, visual plant response rating; conditions: for Corn plant response rating (0 to 100 scale): 500 g ai/ha, postemergence, 0 is no effect, 100 is complete control; for Corn plant response rating: Postemergence, 125 g ai/ha, 0 to 100 scale (0 no effect, 100 complete control)
In short: as §2

[10] = tested on: pigweed (Amaranthus retroflexus); assay: Test A postemergence, visual plant response rating; conditions: for Pigweed plant response rating (0 to 100 scale): 500 g ai/ha, postemergence, 0 is no effect, 100 is complete control; for Pigweed plant response rating: Postemergence, 125 g ai/ha, 0 to 100 scale (0 no effect, 100 complete control)
In short: as §2

[11] = tested on: barnyardgrass (Echinochloa crus-galli); assay: Test A postemergence, visual plant response rating; conditions: for Barnyardgrass plant response rating (0 to 100 scale): 500 g ai/ha, postemergence, 0 is no effect, 100 is complete control; for Barnyardgrass plant response rating: Postemergence, 125 g ai/ha, 0 to 100 scale (0 no effect, 100 complete control)
In short: as §2

[12] = tested on: galium (catchweed bedstraw, Galium aparine); assay: Test A postemergence, visual plant response rating; conditions: for Galium plant response rating (0 to 100 scale): 500 g ai/ha, postemergence, 0 is no effect, 100 is complete control; for Galium plant response rating: Postemergence, 125 g ai/ha, 0 to 100 scale (0 no effect, 100 complete control)
In short: as §2

kochia (Kochia scoparia) [13] = assay: Test A postemergence, visual plant response rating; conditions: for Kochia plant response rating (0 to 100 scale): 500 g ai/ha, postemergence, 0 is no effect, 100 is complete control; for Kochia plant response rating: Postemergence, 125 g ai/ha, 0 to 100 scale (0 no effect, 100 complete control)
In short: as §2

[14] = tested on: wheat (Triticum aestivum); assay: Test A postemergence, visual plant response rating; conditions: for Wheat plant response rating (0 to 100 scale): 500 g ai/ha, postemergence, 0 is no effect, 100 is complete control; for Wheat plant response rating: Postemergence, 125 g ai/ha, 0 to 100 scale (0 no effect, 100 complete control)
In short: as §2

[15] = tested on: Italian ryegrass (Lolium multiflorum); assay: Test A postemergence, visual plant response rating; conditions: for Ryegrass, Italian plant response rating (0 to 100 scale): 500 g ai/ha, postemergence, 0 is no effect, 100 is complete control; for Ryegrass, Italian plant response rating: Postemergence, 125 g ai/ha, 0 to 100 scale (0 no effect, 100 complete control)
In short: as §2

[16] = tested on: ragweed (common ragweed, Ambrosia elatior); assay: Test A postemergence, visual plant response rating; conditions: for Ragweed plant response rating (0 to 100 scale): 500 g ai/ha, postemergence, 0 is no effect, 100 is complete control; for Ragweed plant response rating: Postemergence, 125 g ai/ha, 0 to 100 scale (0 no effect, 100 complete control)
In short: as §2

[17] = tested on: foxtail, giant (giant foxtail, Setaria faberii); assay: Test A postemergence, visual plant response rating; conditions: for Foxtail, Giant plant response rating (0 to 100 scale): 500 g ai/ha, postemergence, 0 is no effect, 100 is complete control; for Foxtail, Giant plant response rating: Postemergence, 125 g ai/ha, 0 to 100 scale (0 no effect, 100 complete control)
In short: as §2

[18] = tested on: blackgrass (Alopecurus myosuroides); assay: Test A postemergence, visual plant response rating; conditions: for Blackgrass plant response rating (0 to 100 scale): 500 g ai/ha, postemergence, 0 is no effect, 100 is complete control; for Blackgrass plant response rating: Postemergence, 125 g ai/ha, 0 to 100 scale (0 no effect, 100 complete control)
In short: as §2

SMILES	Plant response rating, Barnyardgrass (0 to 100 scale, 0 is no effect, 100 is complete control) [1]	Plant response rating, Ducksalad (0 to 100 scale, 0 is no effect, 100 is complete control) [2]	Plant response rating, Rice (0 to 100 scale, 0 is no effect, 100 is complete control) (rice (Oryza sativa))	Plant response rating, Sedge, Umbrella (0 to 100 scale, 0 is no effect, 100 is complete control) [3]	Pigweed plant response rating [4]	Pigweed plant response rating (0 to 100 scale) [4]	Barnyardgrass plant response rating [5]	Barnyardgrass plant response rating (0 to 100 scale) [5]	Kochia plant response rating (kochia (Kochia scoparia) [6])	Kochia plant response rating (0 to 100 scale) (kochia (Kochia scoparia) [6])	Ryegrass, Italian plant response rating [7]	Ryegrass, Italian plant response rating (0 to 100 scale) [7]	Ragweed plant response rating [8]	Ragweed plant response rating (0 to 100 scale) [8]	Foxtail, Giant plant response rating [9]	Foxtail, Giant plant response rating (0 to 100 scale) [9]	Corn plant response rating (0 to 100 scale) (corn (Zea mays))	Corn plant response rating (corn (Zea mays))	Pigweed plant response rating (0 to 100 scale) [10]	Pigweed plant response rating [10]	further results
CO/N=C(/c1c(O)c(C)nn(C)c1=O)c1ccc(F)c2ccccc12 [Compound 75]	0	0	0	0	60	90	30	90	10	90	100	100	80	100	70	100	20	10	90	70	Barnyardgrass plant response rating (0 to 100 scale) [11]: 70; Barnyardgrass plant response rating [11]: 20; Galium plant response rating (0 to 100 scale) [12]: 100; Galium plant response rating [12]: 100; Kochia plant response rating (0 to 100 scale) (kochia (Kochia scoparia) [13]): 90; Kochia plant response rating (kochia (Kochia scoparia) [13]): 70; Wheat plant response rating (0 to 100 scale) [14]: 80; Wheat plant response rating [14]: 60; Ryegrass, Italian plant response rating (0 to 100 scale) [15]: 100; Ryegrass, Italian plant response rating [15]: 90; Ragweed plant response rating (0 to 100 scale) [16]: 100; Ragweed plant response rating [16]: 90; Foxtail, Giant plant response rating (0 to 100 scale) [17]: 80; Foxtail, Giant plant response rating [17]: 50; Blackgrass plant response rating (0 to 100 scale) [18]: 100; Blackgrass plant response rating [18]: 90
CO/N=C(\c1ccccc1C#N)c1c(O)c(C)nn(C)c1=O [Compound 76]	0	0	0	0	0	10	0	0	0	0	0	0	0	0	0	0	0	0	70	40	Barnyardgrass plant response rating (0 to 100 scale) [11]: 20; Barnyardgrass plant response rating [11]: 20; Galium plant response rating (0 to 100 scale) [12]: 70; Galium plant response rating [12]: 40; Kochia plant response rating (0 to 100 scale) (kochia (Kochia scoparia) [13]): 0; Kochia plant response rating (kochia (Kochia scoparia) [13]): 0; Wheat plant response rating (0 to 100 scale) [14]: 0; Wheat plant response rating [14]: 0; Ryegrass, Italian plant response rating (0 to 100 scale) [15]: 30; Ryegrass, Italian plant response rating [15]: 20; Ragweed plant response rating (0 to 100 scale) [16]: 60; Ragweed plant response rating [16]: 10; Foxtail, Giant plant response rating (0 to 100 scale) [17]: 0; Foxtail, Giant plant response rating [17]: 0; Blackgrass plant response rating (0 to 100 scale) [18]: 0; Blackgrass plant response rating [18]: 0
CO/N=C(/c1ccccc1C#N)c1c(O)c(C)nn(C)c1=O [Compound 77]	0	0	0	0	0	0	0	0	0	0	0	0	10	30	0	0	0	0	70	30	Barnyardgrass plant response rating (0 to 100 scale) [11]: 0; Barnyardgrass plant response rating [11]: 0; Galium plant response rating (0 to 100 scale) [12]: 40; Galium plant response rating [12]: 40; Kochia plant response rating (0 to 100 scale) (kochia (Kochia scoparia) [13]): 30; Kochia plant response rating (kochia (Kochia scoparia) [13]): 0; Wheat plant response rating (0 to 100 scale) [14]: 0; Wheat plant response rating [14]: 0; Ryegrass, Italian plant response rating (0 to 100 scale) [15]: 20; Ryegrass, Italian plant response rating [15]: 0; Ragweed plant response rating (0 to 100 scale) [16]: 30; Ragweed plant response rating [16]: 0; Foxtail, Giant plant response rating (0 to 100 scale) [17]: 10; Foxtail, Giant plant response rating [17]: 0; Blackgrass plant response rating (0 to 100 scale) [18]: 0; Blackgrass plant response rating [18]: 0
CCO/N=C(/c1c(O)c(C)nn(C)c1=O)c1cccc2ccccc12 [Compound 78]	0	0	0	0	20	100	80	80	10	30	30	50	90	90	80	90	30	20	90	80	Barnyardgrass plant response rating (0 to 100 scale) [11]: 80; Barnyardgrass plant response rating [11]: 40; Galium plant response rating (0 to 100 scale) [12]: 100; Galium plant response rating [12]: 90; Kochia plant response rating (0 to 100 scale) (kochia (Kochia scoparia) [13]): 70; Kochia plant response rating (kochia (Kochia scoparia) [13]): 60; Wheat plant response rating (0 to 100 scale) [14]: 0; Wheat plant response rating [14]: 0; Ryegrass, Italian plant response rating (0 to 100 scale) [15]: 40; Ryegrass, Italian plant response rating [15]: 30; Ragweed plant response rating (0 to 100 scale) [16]: 90; Ragweed plant response rating [16]: 80; Foxtail, Giant plant response rating (0 to 100 scale) [17]: 80; Foxtail, Giant plant response rating [17]: 70; Blackgrass plant response rating (0 to 100 scale) [18]: 80; Blackgrass plant response rating [18]: 70
CCO/N=C(\c1c(O)c(C)nn(C)c1=O)c1cccc2ccccc12 [Compound 79]	0	0	0	0	30	100	70	80	10	70	30	60	90	100	60	90	20	10	90	80	Barnyardgrass plant response rating (0 to 100 scale) [11]: 90; Barnyardgrass plant response rating [11]: 40; Galium plant response rating (0 to 100 scale) [12]: 100; Galium plant response rating [12]: 90; Kochia plant response rating (0 to 100 scale) (kochia (Kochia scoparia) [13]): 80; Kochia plant response rating (kochia (Kochia scoparia) [13]): 70; Wheat plant response rating (0 to 100 scale) [14]: 0; Wheat plant response rating [14]: 0; Ryegrass, Italian plant response rating (0 to 100 scale) [15]: 30; Ryegrass, Italian plant response rating [15]: 30; Ragweed plant response rating (0 to 100 scale) [16]: 100; Ragweed plant response rating [16]: 90; Foxtail, Giant plant response rating (0 to 100 scale) [17]: 80; Foxtail, Giant plant response rating [17]: 60; Blackgrass plant response rating (0 to 100 scale) [18]: 80; Blackgrass plant response rating [18]: 70
